The text below walks through data of article PMC9465256, “Discovering monoacylglycerol lipase inhibitors by a combination of fluorogenic substrate assay and activity-based protein profiling” (Frontiers in Pharmacology, 2022).

What all share (assay type): biochemical
Assay [1] deals with T1, human MAGL (Homo sapiens, UniProt Q99685).
T1 construct: expressed in transfected cells; host or cells: HEK293T (transient transfection; membrane fraction)
T1 sequence (Q99685 1-303): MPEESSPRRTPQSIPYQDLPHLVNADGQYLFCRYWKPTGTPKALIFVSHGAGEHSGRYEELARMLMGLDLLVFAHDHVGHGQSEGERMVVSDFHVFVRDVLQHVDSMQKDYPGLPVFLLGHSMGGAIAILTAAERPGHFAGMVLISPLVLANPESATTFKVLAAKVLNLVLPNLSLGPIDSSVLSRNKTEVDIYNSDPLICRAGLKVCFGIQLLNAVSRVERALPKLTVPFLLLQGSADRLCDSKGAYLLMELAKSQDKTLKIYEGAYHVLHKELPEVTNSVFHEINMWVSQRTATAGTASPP
The experiment in a line: MAGL activity assay (AA-HNA fluorogenic substrate). The following applies: 100 µM, AA-HNA substrate assay, Supplementary Table 1; read-out: MAGL Inhibition (%). The protocol: (§1) HEK293T cells were cultured at 37°C under 5% CO2 in a DMEM medium with stable glutamine and phenolred, containing 10% fetal bovine serum (FBS, Gibco), penicillin, and streptomycin. The cells were passaged every 2–3 days by resuspension in the medium at ∼90% confluence. The membranes used in this study were prepared from transiently transfected HEK293T cells. Briefly, 1 day prior to transfection, ∼10^7 cells were seeded in 15 cm plates, and then the cells were transfected by the addition of a mixture of polyethyleneimine and plasmid DNA (3:1, 60, and 20 µg) in 2 ml of medium (without serum). Of note, the empty pcDNA3.1 vector was used in the Mock-control. After 24 h, the medium was removed and the cells were refreshed with fresh medium. After 72 h, the cells were harvested by suspending in 20 ml of medium, and the supernatant was removed by centrifugation for 10 min at 1,000 rpm. The cell pellet was flash frozen in liquid nitrogen and stored at −80°C until use. Subsequently, the cell pellets were suspended in lysis buffer (30 mM Tirs, pH 7.5, 1 mM MgCl2, 25 U/ml Benzonase), which was homogenized by sonication (3 × 10 bursts) and incubated for 30 min on ice. The membrane fractions overexpressing MAGL/ABHD6/ABHD12 were separated by ultracentrifuge (100,000 g, 30 min, 4 C). The protein concentration was determined with a Qubit protein assay (Invitrogen). The protein samples were quickly frozen in liquid nitrogen and stored at −80 C until use.
The MAGL activity assay is based on the hydrolysis of 2-arachidonoylglycerol-based fluorogenic substrate by MAGL-overexpressing membrane preparations from transiently transfected HEK293T cells. In brief, the reactions were performed in HEPES buffer (40 mM HEPES, pH 7.5, 0.1 mg/ml BSA) in black, flat bottom 96-well plates. […] After the incubation of the inhibitor-protein complex for 30 min, 10 µl of the fluorogenic substrate (AA-HNA, 200 µM) was added and fluorescence was measured in 1 min intervals for 30 min on a plate reader (BioTek). […] All the measurements were performed in N = 2, n = 2 for inhibitors and N = 2, n = 4 for controls with Z′ value ≥0.6. The slope is determined in 5–15 min for all the experiments.

The target of assay [2] is T2, human ABHD6 (Homo sapiens, UniProt Q9BV23).
T2 construct: expressed in transfected cells; host or cells: HEK293T (transient transfection; membrane fraction)
T2 sequence (Q9BV23 1-337): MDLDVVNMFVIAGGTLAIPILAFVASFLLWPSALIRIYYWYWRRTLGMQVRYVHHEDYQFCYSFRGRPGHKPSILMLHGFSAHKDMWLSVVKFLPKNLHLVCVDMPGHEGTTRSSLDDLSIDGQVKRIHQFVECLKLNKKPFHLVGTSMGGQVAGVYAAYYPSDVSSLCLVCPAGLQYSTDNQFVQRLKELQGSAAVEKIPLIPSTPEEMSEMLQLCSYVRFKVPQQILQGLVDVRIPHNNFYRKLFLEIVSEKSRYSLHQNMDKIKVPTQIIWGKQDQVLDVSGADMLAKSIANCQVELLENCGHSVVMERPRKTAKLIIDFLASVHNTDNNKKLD
The experiment in a line: ABHD6 activity assay (AA-HNA fluorogenic substrate). The settings on record: 100 µM, AA-HNA substrate assay, Supplementary Table 2; read-out: ABHD6 Inhibition (%). On the procedure: as §1
The MAGL activity assay is based on the hydrolysis of 2-arachidonoylglycerol-based fluorogenic substrate by MAGL-overexpressing membrane preparations from transiently transfected HEK293T cells. In brief, the reactions were performed in HEPES buffer (40 mM HEPES, pH 7.5, 0.1 mg/ml BSA) in black, flat bottom 96-well plates. The final protein concentration of membrane fractions from overexpressing human MAGL HEK293T cells was 12.5 μg/ml 5 µl of inhibitors were added from×40 concentrated DMSO stocks in the 96-well plate containing 145 µl assay buffer, followed by the addition of 40 µl of the protein (12.5 μg/ml). After the incubation of the inhibitor-protein complex for 30 min, 10 µl of the fluorogenic substrate (AA-HNA, 200 µM) was added and fluorescence was measured in 1 min intervals for 30 min on a plate reader (BioTek). Final assay concentrations: 12.5 μg/ml MAGL, […], and […] in the total volume of 200 µl. All the measurements were performed in N = 2, n = 2 for inhibitors and N = 2, n = 4 for controls with Z′ value ≥0.6. The slope is determined in 5–15 min for all the experiments.
The ABHD6 activity assay is based on the same principle as the MAGL activity assay described earlier, but with human ABHD6 overexpressing membrane preparations at a final protein concentration of 50 μg/ml and 200 µM AA-HNA. Other conditions are the same as those of the MAGL activity assay.

In assay [3] the target is T3, human ABHD12 (Homo sapiens, UniProt Q8N2K0).
T3 construct: expressed in transfected cells; host or cells: HEK293T (transient transfection; membrane fraction)
T3 sequence (Q8N2K0 1-398): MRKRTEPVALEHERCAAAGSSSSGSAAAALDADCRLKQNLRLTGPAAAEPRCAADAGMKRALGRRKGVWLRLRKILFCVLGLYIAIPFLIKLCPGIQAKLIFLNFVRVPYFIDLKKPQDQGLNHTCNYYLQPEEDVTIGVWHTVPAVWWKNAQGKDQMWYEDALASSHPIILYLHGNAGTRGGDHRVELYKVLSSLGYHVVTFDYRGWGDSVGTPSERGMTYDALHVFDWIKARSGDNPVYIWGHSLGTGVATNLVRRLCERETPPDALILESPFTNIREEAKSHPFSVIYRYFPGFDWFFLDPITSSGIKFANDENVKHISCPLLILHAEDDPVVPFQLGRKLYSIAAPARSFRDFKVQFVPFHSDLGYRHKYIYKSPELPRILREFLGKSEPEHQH
The experiment in a line: ABHD12 activity by competitive ABPP with FP-TAMRA. The settings on record: 100 µM compound; competitive ABPP with probe FP-TAMRA (250 nM); read-out: ABHD12 Inhibition (%). On the procedure:
as §1
The ABHD12 activity assay is based on competitive activity-based protein profiling (ABPP) with human ABHD12 overexpressing membrane fractions. Briefly, the membrane proteome (1 mg/ml, 20 µl) was incubated at room temperature with 0.5 µl DMSO (vehicle) or inhibitor for 30 min. Subsequently, the samples were treated with the activity-based probe FP-TAMRA (250 nM, final concentration) for 20 min. The reactions were then quenched by 10 µl sample buffer (×4) (final concentrations: 60 mM Tris, pH 6.8, 2% (w/v) SDS, 10% (v/v) glycerol, 5% (v/v) β-mercaptoethanol, 0.01% (v/v) bromophenol blue). The samples were directly loaded and resolved on SDS-PAGE gel (10% acrylamide), which were then scanned using a ChemiDoc MP system (Cy3 settings, BioRad).

`O=c1c(O)c(-c2ccc(O)cc2)oc2cc(O)cc(O)c12` [compound 43, Kaempferol]: the figures for the activity at 100 µM in assay [1], in assay [2] and in assay [3] were 32.2%, 84.3% and 30.2%, respectively.
For `c1coc(CNc2ncnc3[nH]cnc23)c1` [compound 44, Kinetin], in that order: 90.5%, 98.5% and 78.2%.
With `C[C@@H]1O[C@@H](O)[C@H](O)[C@H](O)[C@H]1O` [compound 45, L-(+)-Rhamnose Monohydrate], the activity in assay [1] was determined as 81.1%; in assay [2] it was 98.8%; in assay [3], 80.6%.
Turning to `CC1(C)O[C@H]2CC(=O)OC[C@]23[C@H]2CC[C@@]4(C)[C@H](c5ccoc5)OC(=O)[C@H]5O[C@]54[C@]2(C)C(=O)C[C@@H]13` [compound 46, Limonin], the activity at 100 µM came out at 90.6% in assay [1], 103% in assay [2] and 83.1% in assay [3].
For `C=CCc1ccc(O)c(-c2cc(CC=C)ccc2O)c1` [compound 48, Magnolol], in that order: 72.2%, 101% and 107%.
`O=C1CCC[C@@H]2[C@H]3CCCN4CCC[C@@H](CN12)[C@@H]34` [compound 49, (+)-Matrine]: the values for the activity in assay [1], in assay [2] and in assay [3] were 85.4%, 98.3% and 84.4%, respectively.
For `O=c1c(O)c(-c2ccc(O)cc2O)oc2cc(O)cc(O)c12` [compound 51, Morin hydrate], in that order: 49.4%, 99.4% and 31.6%.
Regarding `O=c1c(O)c(-c2cc(O)c(O)c(O)c2)oc2cc(O)cc(O)c12` [compound 52, Myricetin], the values for the activity at 100 µM in assay [1], in assay [2] and in assay [3] were 41.2%, 100% and 63.9%, respectively.
The matching figures for `CCn1cc(C(=O)O)c(=O)c2ccc(C)nc21` [compound 54, Nalidixic acid]: 143%, 100% and 82.2%.
The matching figures for `C[C@@H]1O[C@@H](O[C@H]2[C@H](Oc3cc(O)c4c(c3)O[C@H](c3ccc(O)cc3)CC4=O)O[C@H](CO)[C@@H](O)[C@@H]2O)[C@H](O)[C@H](O)[C@H]1O` [compound 55, Naringin]: 104%, 104% and 81.4%.
For the molecule `COc1ccc(CCC(=O)c2c(O)cc(O[C@@H]3O[C@H](CO)[C@@H](O)[C@H](O)[C@H]3O[C@@H]3O[C@@H](C)[C@H](O)[C@@H](O)[C@H]3O)cc2O)cc1O` [compound 56, Neohesperidin dihydrochalcone], the activity at 100 µM in assay [1] was 87.4%; in assay [2], 105%; in assay [3], 83.1%.
With `COc1ccc([C@@H]2CC(=O)c3c(O)cc(O[C@@H]4O[C@H](CO)[C@@H](O)[C@H](O)[C@H]4O[C@@H]4O[C@@H](C)[C@H](O)[C@@H](O)[C@H]4O)cc3O2)cc1O` [compound 57, Neohesperidin], the activity in assay [1] was found to be 86.8%; in assay [2], 98.7%; in assay [3] it was 75.6%.
Regarding `COc1ccc(-c2cc(=O)c3c(OC)c(OC)c(OC)c(OC)c3o2)cc1OC` [compound 58, Nobiletin], the results for the activity at 100 µM in assay [1], in assay [2] and in assay [3] were 83.4%, 100% and 75.6%, respectively.
Regarding `CC1(C)CC[C@]2(C(=O)O)CC[C@]3(C)C(=CC[C@@H]4[C@@]5(C)CC[C@H](O)C(C)(C)[C@@H]5CC[C@]43C)[C@@H]2C1` [compound 59, Oleanolic Acid], the activity at 100 µM was 130% in assay [1], 98.5% in assay [2] and 57.7% in assay [3].
As to `C=C1C(=O)[C@]23[C@H](O)[C@H]1CC[C@H]2[C@@]12CO[C@]3(O)[C@@H](O)[C@@H]1C(C)(C)CC[C@@H]2O` [compound 60, Oridonin], the activity at 100 µM in assay [1] was 59.6%; in assay [2], 102%; in assay [3], 74.6%.
The matching figures for `O=C(O)c1cc(=O)[nH]c(=O)[nH]1` [compound 61, Orotic acid]: 101%, 113% and 97.2%.
The matching figures for `COc1ccc2ccc(=O)oc2c1CC=C(C)C` [compound 62, Osthole]: 94.5%, 112% and 106%.
The matching figures for `O=C1CCC[C@@H]2[C@H]3CCC[N+]4([O-])CCC[C@@H](CN12)[C@@H]34` (stereo partly drawn) [compound 63, Oxymatrine]: 99.9%, 102% and 91.3%.
With `C=C1C(=O)O[C@H]2[C@H]1CC/C(C)=C/CC[C@@]1(C)O[C@@H]21` [compound 65, (-)-Parthenolide], the activity in assay [1] was determined as 87.5%; in assay [2] it was 105%; in assay [3], 92.4%.
